# Columns and labels:
# Experiment in all cases: Bliss excess, mean over the matrix (fraction); higher = more synergy
# [1] = test system: AM-38 (Glioblastoma)
# Method in brief: (§1)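 Cell lines in DMEM/F12 or RPMI with 10% FBS were plated in 1536-well plates, held 24 hours at 37°C, 5% CO2, then given two-drug dose matrices for 72 hours (DMSO typically 0.2%). Viability was read by CellTiter-Glo 2.0 luminescence and scaled as inhibition from 0 (vehicle wells) to 1 (blank wells). Combination Emax is the second-highest inhibition in the matrix; Bliss excess is observed combination effect minus expected EA + EB − EA·EB, EA and EB being single-agent effects.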
# [2] = test system: BxPC-3 (Pancreatic Carcinoma)
# Method in brief: as §1
# [3] = test system: GAK (Melanoma)
# Method in brief: as §1
# [4] = test system: IST-MEL1 (Melanoma)
# Method in brief: as §1
# [5] = test system: KP-4 (Pancreatic Carcinoma)
# Method in brief: as §1
# [6] = test system: MONO-MAC-6 (Acute Myeloid Leukemia)
# Method in brief: as §1
# [7] = test system: MS-1 (Small Cell Lung Carcinoma)
# Method in brief: as §1
# [8] = test system: NAMALWA (Burkitt's Lymphoma)
# Method in brief: as §1
# [9] = test system: NB1 (Neuroblastoma)
# Method in brief: as §1
# [10] = test system: NCI-H1341 (Small Cell Lung Carcinoma)
# Method in brief: as §1
# [11] = test system: NCI-H1876 (Small Cell Lung Carcinoma)
# Method in brief: as §1
# [12] = test system: NCI-H2373 (Mesothelioma)
# Method in brief: as §1
# [13] = test system: NCI-H3118 (Head and Neck Carcinoma)
# Method in brief: as §1
# [14] = test system: NCI-H596 (Other Solid Carcinomas)
# Method in brief: as §1
# [15] = test system: OAW-28 (Ovarian Carcinoma)
# Method in brief: as §1
# [16] = test system: OVCAR-3 (Ovarian Carcinoma)
# Method in brief: as §1
# [17] = test system: PL4 (Pancreatic Carcinoma)
# Method in brief: as §1
# [18] = test system: Raji (Burkitt's Lymphoma)
# Method in brief: as §1
# [19] = test system: SUP-M2 (T-Cell Non-Hodgkin's Lymphoma)
# Method in brief: as §1
# [20] = test system: T84 (Colorectal Carcinoma)
# Method in brief: as §1
SMILES,Bliss excess [1],Bliss excess [2],Bliss excess [3],Bliss excess [4],Bliss excess [5],Bliss excess [6],Bliss excess [7],Bliss excess [8],Bliss excess [9],Bliss excess [10],Bliss excess [11],Bliss excess [12],Bliss excess [13],Bliss excess [14],Bliss excess [15],Bliss excess [16],Bliss excess [17],Bliss excess [18],Bliss excess [19],Bliss excess [20]
"CN(C)CCCOc1ccc(-c2ccc3ncc4c(c3c2)n(C2CCOCC2)c(=O)n4C)cn1 [AZD0156] + C=CCn1c(=O)c2cnc(Nc3ccc(N4CCN(C)CC4)cc3)nc2n1-c1cccc(C(C)(C)O)n1 [AZD1775] (first compound max 1 µM, partner max 1 µM)",0.0248,-0.0506,-0.0058,-0.0225,-0.0898,0.0017,-0.0301,0.0156,-0.0109,-0.0201,0.0171,-0.0126,-0.0933,0.0029,-0.0386,-0.02,-0.0586,-0.0278,0.0535,-0.0631
"CN(C)CCCOc1ccc(-c2ccc3ncc4c(c3c2)n(C2CCOCC2)c(=O)n4C)cn1 [AZD0156] + CCN(CCO)CCCOc1ccc2c(Nc3cc(CC(=O)Nc4cccc(F)c4)[nH]n3)ncnc2c1 [AZD2811] (first compound max 1 µM, 7x7, partner max 1 µM)",0.0165,-0.0212,-0.0025,-0.0131,-0.0162,0.053,0.0331,0.0323,-0.0137,0.005,-0.0557,-0.0048,-0.0316,-0.005,-0.0061,-0.01,0.0286,0.0082,-0.0286,-0.0248
"CN(C)CCCOc1ccc(-c2ccc3ncc4c(c3c2)n(C2CCOCC2)c(=O)n4C)cn1 [AZD0156] + C[C@@H]1COCCN1C2=NC(=NC(=C2)C3(CC3)[S@](=N)(=O)C)C4=C5C=CNC5=NC=C4 [AZD6738] (first compound max 1 µM, 7x7, partner max 10 µM)",0.0677,-0.0083,0.0448,-0.0196,-0.0286,-0.0253,0.0279,0.0342,0.0522,0.0309,0.0226,-0.0065,-0.0235,-0.009,-0.0279,0.0353,0.0862,0.0164,0.0555,0.0182
"CN(C)CCCOc1ccc(-c2ccc3ncc4c(c3c2)n(C2CCOCC2)c(=O)n4C)cn1 [AZD0156] + O=C(c1cc(Cc2n[nH]c(=O)c3ccccc23)ccc1F)N1CCN(C(=O)C2CC2)CC1 [Olaparib] (first compound max 3 µM, partner max 3 µM)",0.167,-0.0342,0.0131,0.0034,0.0711,0.102,0.142,0.117,-0.0721,-0.0165,0.103,0.0178,0.0479,0.0282,0.0871,-0.0371,0.018,0.156,0.202,-0.0535
"C=CCn1c(=O)c2cnc(Nc3ccc(N4CCN(C)CC4)cc3)nc2n1-c1cccc(C(C)(C)O)n1 [AZD1775] + C1CN(CCC1(C(=O)N[C@@H](CCO)C2=CC=C(C=C2)Cl)N)C3=NC=NC4=C3C=CN4 [Capivasertib] (first compound max 3 µM, partner max 3 µM)",-0.0247,-0.0227,-0.0395,–,-0.0806,0.031,0.0208,0.0603,-0.0592,-0.0538,-0.0304,-0.0393,-0.0253,-0.0987,0.0019,-0.025,-0.0549,0.0011,0.0518,-0.0807
"C=CCn1c(=O)c2cnc(Nc3ccc(N4CCN(C)CC4)cc3)nc2n1-c1cccc(C(C)(C)O)n1 [AZD1775] + C[C@@H]1COCCN1C2=NC(=NC(=C2)C3(CC3)[S@](=N)(=O)C)C4=C5C=CNC5=NC=C4 [AZD6738] (first compound max 1 µM, partner max 10 µM)",0.0618,-0.0161,0.0196,0.021,0.031,0.0178,0.0322,0.0397,-0.0161,0.0723,0.0099,0.025,0.0218,0.0323,0.0012,0.113,0.0501,0.109,-0.0015,0.0084
"C=CCn1c(=O)c2cnc(Nc3ccc(N4CCN(C)CC4)cc3)nc2n1-c1cccc(C(C)(C)O)n1 [AZD1775] + O=C(c1cc(Cc2n[nH]c(=O)c3ccccc23)ccc1F)N1CCN(C(=O)C2CC2)CC1 [Olaparib] (first compound max 1 µM, partner max 10 µM)",-0.0018,-0.0266,-0.0243,-0.0596,-0.0373,0.0004,-0.0094,-0.0133,-0.0795,-0.0236,0.0311,-0.013,-0.0301,-0.0963,-0.0237,0.0351,0.0037,-0.016,0.0276,-0.0136
"COc1nnc2ccc(N3CCC(c4ccc(OCCN5CCN(C)C(=O)[C@H]5C)cc4)CC3)nn12 [AZD5153] + CN(CC[C@H](CSC1=CC=CC=C1)NC2=C(C=C(C=C2)S(=O)(=O)NC(=O)C3=CC=C(C=C3)N4CCC(CC4)[C@H](C5=CC=CC=C5C6=CC=C(C=C6)Cl)O)S(=O)(=O)C(F)(F)F)CCO [AZD4320] (first compound max 1 µM, 7x7, partner max 1 µM)",0.103,–,–,–,–,–,–,–,0.0126,0.0454,0.134,0.0157,–,0.0028,0.0297,0.0914,0.0732,0.0146,-0.0028,–
"Cc1c2c(nn1C)CSCc1cc(n(C)n1)CSc1cc(c3ccccc3c1)OCCCc1c(C(=O)O)n(C)c3c-2c(Cl)ccc13 [AZD5991] + CCN(CCO)CCCOc1ccc2c(Nc3cc(CC(=O)Nc4cccc(F)c4)[nH]n3)ncnc2c1 [AZD2811] (first compound max 1 µM, 7x7, partner max 1 µM)",0.0138,0.0412,–,0.0931,0.0247,0.0258,0.0123,0.089,0.0095,0.0493,0.058,-0.0088,0.0796,-0.102,0.095,0.0647,0.0467,0.0766,0.0104,0.0441
"Cc1c2c(nn1C)CSCc1cc(n(C)n1)CSc1cc(c3ccccc3c1)OCCCc1c(C(=O)O)n(C)c3c-2c(Cl)ccc13 [AZD5991] + C[C@@H](Nc1cc(F)cc(F)c1)c1cc(C(=O)N(C)C)cc2c(=O)cc(N3CCOCC3)oc12 [AZD8186] (first compound max 1 µM, 7x7, partner max 3 µM)",-0.0352,-0.0059,0.0257,-0.0184,-0.0235,0.0143,-0.0481,0.0021,-0.0275,0.0352,0.0156,-0.0288,-0.0161,–,0.0538,0.0423,0.0356,0.0164,-0.0203,–
"Cc1c2c(nn1C)CSCc1cc(n(C)n1)CSc1cc(c3ccccc3c1)OCCCc1c(C(=O)O)n(C)c3c-2c(Cl)ccc13 [AZD5991] + Cn1cnc2c(F)c(Nc3ccc(Br)cc3Cl)c(C(=O)NOCCO)cc21 [Selumetinib] (first compound max 1 µM, 7x7, partner max 3 µM)",0.0517,0.0457,-0.0093,–,-0.0165,0.0117,-0.0362,-0.0172,-0.0181,0.0693,0.0841,-0.0345,0.0324,-0.0098,0.089,0.0353,-0.0325,0.0082,0.048,0.0438
"Cc1nc(Nc2ncc(C(=O)Nc3c(C)cccc3Cl)s2)cc(N2CCN(CCO)CC2)n1 [Dasatinib] + CC(=O)Nc1cccc(-n2c(=O)n(C3CC3)c(=O)c3c(Nc4ccc(I)cc4F)n(C)c(=O)c(C)c32)c1 [Trametinib] (first compound max 2 µM, 7x7, partner max 1 µM)",0.0091,0.0009,-0.0624,–,0.0558,-0.0052,-0.0281,-0.0039,-0.0502,0.105,-0.0548,-0.0756,-0.0604,-0.0018,0.0599,-0.001,-0.0056,-0.0232,-0.0216,-0.0174
"CC(=O)c1c(C)c2cnc(Nc3ccc(N4CCNCC4)cn3)nc2n(C2CCCC2)c1=O [Palbociclib] + CN(CC[C@H](CSC1=CC=CC=C1)NC2=C(C=C(C=C2)S(=O)(=O)NC(=O)C3=CC=C(C=C3)N4CCC(CC4)[C@H](C5=CC=CC=C5C6=CC=C(C=C6)Cl)O)S(=O)(=O)C(F)(F)F)CCO [AZD4320] (first compound max 10 µM, 7x7, partner max 1 µM)",-0.0234,–,–,–,–,–,–,–,-0.0677,-0.008,-0.0286,-0.0794,–,-0.0578,-0.004,-0.0429,-0.0826,-0.0122,0.0414,–
"CCc1c2c(nc3ccc(O)cc13)-c1cc3c(c(=O)n1C2)COC(=O)[C@]3(O)CC [SN-38] + O=C(c1cc(Cc2n[nH]c(=O)c3ccccc23)ccc1F)N1CCN(C(=O)C2CC2)CC1 [Olaparib] (first compound max 0.3 µM, 7x7, partner max 10 µM)",-0.0023,-0.005,0.0227,0.0125,0.0777,0.141,0.0551,0.0571,–,0.0698,–,-0.0716,0.106,–,–,0.0986,0.0386,0.0342,0.0641,-0.0279
"C[C@@H](c1ccc2nccn2c1)n1nnc2ncc(-c3cnn(C)c3)nc21 [Savolitinib] + CN(CC[C@H](CSC1=CC=CC=C1)NC2=C(C=C(C=C2)S(=O)(=O)NC(=O)C3=CC=C(C=C3)N4CCC(CC4)[C@H](C5=CC=CC=C5C6=CC=C(C=C6)Cl)O)S(=O)(=O)C(F)(F)F)CCO [AZD4320] (first compound max 1 µM, 7x7, partner max 1 µM)",-0.0474,–,–,–,–,–,–,–,-0.0318,0.0128,-0.0256,-0.0681,–,-0.018,-0.006,-0.0388,-0.0801,-0.0168,-0.058,–
